Earlier results in patent publication US20190230969A1, “COMPOSITION OF PURIFIED SOLUBLE MANNANS FOR DIETARY SUPPLEMENTS AND METHODS OF USE THEREOF” (priority 2010, published 2019).

Tests used:
[1] = system: normal and castrated rats; details: 10 mg/kg subcutaneously biweekly, 4 weeks
[2] = system: patients; details: in vivo

| Compound | effect on BUN and testosterone levels [1] | gastrointestinal disturbances (flatulence, abdominal distension, borborygmus, diarrhea) [2] |
| --- | --- | --- |
| C[C@]12CC[C@H]3[C@@H](CCC4=CC(=O)CC[C@@]43C)[C@@H]1CC[C@@H]2O [testosterone] | increases | – |
| C[C@H]1O[C@H](O[C@H]2[C@H](O)[C@@H](O)[C@@H](O[C@H]3[C@H](O)[C@@H](O)C(O)O[C@@H]3CO)O[C@@H]2CO)[C@H](O)[C@@H](O)[C@@H]1N[C@H]1C=C(CO)[C@@H](O)[C@H](O)[C@H]1O (some centres unmarked) [acarbose] | – | High incidence of gastrointestinal disturbances |
